# In patent US6613806B1, “Enhancement of the efficacy of benzoylbenzenes” (BASF Corporation, priority 1999, dated 2003):
# Key:
# Type in all cases: in vivo
# [1] = system: Blumeria graminis f.sp. tritici; assay: Greenhouse wheat powdery mildew (WPM) 2 day curative disease control; details: Table I; adjuvant alone, NOP 1000 ppm, BB-4 0 ppm
# Excerpt: (§1) Greenhouse Evaluations for Fungicidal Efficacy Disease: Wheat powdery mildew (WPM). Pathogen: Blumeria graminis f.sp. tritici Test Procedure: 1. Wheat seed is planted in plastic pots and maintained in the greenhouse. 2. When the primary leaf (wheat) is fully expanded, formulated test compounds and adjuvants are sprayed with a single nozzle overhead track sprayer at a rate of 200 l/ha. Plants are then allowed to air-dry. 3. Inoculation precedes treatment by 2 days in the case of curative evaluations and follows treatment by 3-4 days in case of residual evaluations. For inoculation, plants are set up on greenhouse benches with bottom watering mats and inoculated by dusting them with conidia from powdery mildew infected plants (stock cultures at an age of 10-14 days). Between inoculation and treatment for curative evaluations and between treatment and inoculation for residual evaluations, plants are maintained in the greenhouse with bottom watering. 4. Disease on the primary leaf (wheat) as percent leaf area with disease symptoms/signs is evaluated about 7 days after inoculation. In the case of wheat, the tips and bases of the leaves are excluded from the evaluation. Percent disease control is then calculated by the following is formula: [formula] Formulation, Reference Compounds and Controls: 1. Formulated compounds are diluted using deionized water. 2. […]
# [2] = system: Blumeria graminis f.sp. tritici; assay: Greenhouse wheat powdery mildew (WPM) 4 day residual disease control; details: adjuvant alone, NOP 1000 ppm, BB-4 0 ppm
# Excerpt: as §1
# [3] = system: Blumeria graminis f.sp. tritici; assay: Greenhouse wheat powdery mildew (WPM) antisporulation test; parameters: key: +++: complete (no spore release); ++: strong; +: moderate; none; details: Table III; adjuvant alone, NOP 1000 ppm, BB-4 0 ppm
# Excerpt: Greenhouse Evaluations for Fungicidal Efficacy Disease: Wheat powdery mildew (WPM). Pathogen: Blumeria graminis f.sp. tritici Test Procedure: 1. Wheat seed is planted in plastic pots and maintained in the greenhouse. 2. When the primary leaf (wheat) is fully expanded, formulated test compounds and adjuvants are sprayed with a single nozzle overhead track sprayer at a rate of 200 l/ha. Plants are then allowed to air-dry. 3. Inoculation precedes treatment by 2 days in the case of curative evaluations and follows treatment by 3-4 days in case of residual evaluations. For inoculation, plants are set up on greenhouse benches with bottom watering mats and inoculated by dusting them with conidia from powdery mildew infected plants (stock cultures at an age of 10-14 days). Between inoculation and treatment for curative evaluations and between treatment and inoculation for residual evaluations, plants are maintained in the greenhouse with bottom watering. In antisporulation tests, inoculation preceeds compound application by three days. Scale for Anti-Sporulation Effect: +++=complete (no spore release); ++=strong; +=moderate; o=none.
smiles,measurement,setting,value
"CCCCCCCCN1CCCC1=O [NOP, N-octylpyrrolidone]",WPM 2 day Curative Disease Control (%),[1],14%
same,WPM 4 day Residual Disease Control (%),[2]; Table I,9%
same,WPM 4 day Residual Disease Control (%),[2]; Table III,0%
same,WPM Antisporulation Effect,[3],o
